The values below come from publication PMC10492782, “Exploiting the aggregation propensity of beta-lactamases to design inhibitors that induce enzyme misfolding” (Nature Communications, 2023).

What all share (type): cell-based, Escherichia coli
One experiment deals with E. coli. As to conditions: E.coli TEM104, Suppl. Figure 5. The method, then: For the analysis of synergy between the peptides and other antibiotics, a checkerboard assay was performed. Based on the MICs of the selected peptides, a checkerboard assay was designed to define their FICIs (Fractional Inhibitory Concentration Index) in combinations against different clinical isolates[53],[54]. Briefly, a total volume of 100 μL of Mueller–Hinton broth was distributed into each well of the 96-well plates. The first compound (peptide) of the combination was serially diluted vertically (128, 64, 32, 16, 8, 4, 2, 0 μg/mL) while the other drug (Beta-lactam or Kanamycin) was diluted horizontally in a 96-well plate (from 3200 to 3 μg/ mL). The total volume of each microtiter well was inoculated with 100 μL of MHB containing 1 × 10^6 CFU/mL bacteria. The plates were incubated at 37 °C for 24 h under aerobic conditions without shaking. Calculation of the FICI is used to analyze the results of the checkerboard assay by estimating the degree of synergistic effect. FICI is calculated as the sum of the individual fractional inhibitory concentrations (FICs) for each drug (where MIC A and MIC B denote the MIC of each drug alone, and MIC AA+B and MIC BA+B denote the concentrations of A and B in the drug combination). FICI = (MIC AA+B/MIC A) + (MIC BA+B/MIC B). With FICI ≤ 0.5, the combination of antibiotics is considered as a synergistic effect, 0.5 < FICI ≤ 1 indicates additivity, FICI > 1 indicates indifference. […]
Supplementary Figure 5: Fraction Inhibitory Concentration Index (FICI) values obtained from checkerboard assays between control peptides 1-4 and penicillin G. The peptide sequences were obtained by introducing proline mutations in TEM3.2 as follows: Pro1 […]
([…]), Pro2 ([…]), Pro3
([…]) and Pro4 ([…]). Each of the five dots […]
per condition indicates an independent experiment of the measurement consisting of 96 datapoints. FICI values below 0.5 indicate synergy (shaded in green). Values between 0.5 and 1.0 indicate additivity (shaded in yellow) and values greater than 1 indicate indifference (shaded in red) between the combined substances. […]

In the next experiment the test system is E. coli SHV1 (APHA). In words: VITEK 2 AST antimicrobial susceptibility testing. To be noted: for Interoretation: E. coli SHV154; for Interpretation: VITEK 2 AST card. The method, then:
(§1) Beta-lactamase clinical samples were collected from University Hospitals Leuven and tested for ESBL production using the disk diffusion method. The beta-lactamase reference isolates were purchased from International Health Management Associates (IHMA). Bacterial strains were cultivated in Mueller–Hinton Broth (MHB, Difco) at 37 °C. Whenever required, growth media were supplemented with appropriate antibiotics to the medium or plates (kanamycin 30 µg/mL, L-arabinose 0.5 mg/mL, and IPTG […]). Escherichia coli BL21 (ThermoFisher Scientific, Belgium) was used for cloning and plasmid amplification. For the selection of antibiotic resistant colonies, E. coli carrying plasmids was grown in LB agar plates supplemented with the relevant antibiotic. Bacterial CFU counting was done on blood agar plates (BD Biosciences, Belgium) or MHA agar plates. Species identification and antibiograms for all clinical isolates were performed using MALDI-Tof and VITEK® 2 automated system (BioMérieux, France).
(§2) Khodaparast et al Supplementary data
(§3) study. […] Abbreviations: S,
(§4) susceptible; I, intermediate; R, resistant.

For a further experiment, the system named is E. coli TEM-104. In words: VITEK 2 AST antimicrobial susceptibility testing. As to conditions: for Interoretation: E. coli TEM-104; for Interpretation: VITEK 2 AST card. The method, then:
as §1, §2, §3, §4

Another experiment concerns E. coli TEM-206. In words: VITEK 2 AST antimicrobial susceptibility testing. As to conditions: for Interoretation: E. coli TEM-206; for Interpretation: VITEK 2 AST card. The method, then: as §1, §2, §3, §4
Another experiment has as its system E. coli TEM-148. In words: VITEK 2 AST antimicrobial susceptibility testing. As to conditions: for Interoretation: E. coli TEM-148; for Interpretation: VITEK 2 AST card. The procedure:
as §1, §2, §3, §4

In a further experiment the test system is E. coli NDM5a. Description: VITEK 2 AST antimicrobial susceptibility testing. As to conditions: for Interoretation: E. coli NDM5a; for Interpretation: VITEK 2 AST card. The procedure:
as §1, §2, §3, §4

The next experiment has as its system E. coli TEM-16. In words: VITEK 2 AST antimicrobial susceptibility testing. As to conditions: for Interoretation: E. coli TEM-16; for Interpretation: VITEK 2 AST card. The procedure:
as §1, §2, §3, §4

The next experiment deals with E. coli NDM5b. In words: VITEK 2 AST antimicrobial susceptibility testing. To be noted: for Interoretation: E. coli NDM5b; for Interpretation: VITEK 2 AST card. The procedure: as §1, §2, §3, §4
For another experiment, the system named is E. coli TEM-30. To be noted: for Interoretation: E. coli TEM-30; for Interpretation: VITEK 2 AST card. The procedure:
as §1, §2, §3, §4

Where two headings read alike, the source gives them in different places.

For the compound Ac-RPTAPLHNRRPRPTAPLRQRR-NH2 [Pro1], the FICi values with E. coli (Replicate1), with E. coli (Replicate2), in the experiment with E. coli (Replicate3) and in the experiment on E. coli (Replicate4) was 2 each time.
On to Ac-RPTPFLHNRRPRPTPFLRQRR-NH2 [Pro3], for which the FICi values in the experiment with E. coli (Replicate1), with E. coli (Replicate2), in the experiment on E. coli (Replicate3) and with E. coli (Replicate4) was 2 in each case.
For `CO/N=C(\C(=O)N[C@@H]1C(=O)N2C(C(=O)O)=C(COC(C)=O)CS[C@H]12)c1csc(N)n1` [Cefotaxime], the Interoretation entry with E. coli SHV1 (APHA) is “R”; in the experiment on E. coli TEM-104, “S”; in the experiment on E. coli TEM-206, “R”; in the experiment on E. coli TEM-148, “R”; in the experiment on E. coli NDM5a, “R”; in the experiment with E. coli TEM-16, “R”. Further, the Interoretation entry with E. coli NDM5b and with E. coli TEM-30 was “R” throughout. Moreover, the Interpretation result is reported as “R” with E. coli SHV1 (APHA); “S” in the experiment on E. coli TEM-104; “R” with E. coli TEM-206; “R” in the experiment with E. coli TEM-148; “R” in the experiment on E. coli NDM5a; “R” with E. coli TEM-16. The Interpretation result with E. coli NDM5b and with E. coli TEM-30 was “R” each time.
For `C=CC1=C(C(=O)O)N2C(=O)[C@@H](NC(=O)/C(=N\OCC(=O)O)c3csc(N)n3)[C@H]2SC1` [Cefixime], the Interoretation entry with E. coli SHV1 (APHA) is listed as “R”; with E. coli TEM-104, “S”; in the experiment on E. coli TEM-206, “R”; in the experiment with E. coli TEM-148, “*I”; with E. coli NDM5a, “R”; with E. coli TEM-16, “R”. The figures for the Interoretation entry in the experiment with E. coli NDM5b and with E. coli TEM-30 were “R” and “*I”, respectively. The Interpretation entry is “R” in the experiment with E. coli SHV1 (APHA); “S” in the experiment on E. coli TEM-104; “R” in the experiment with E. coli TEM-206; “*I” in the experiment on E. coli TEM-148; “R” in the experiment on E. coli NDM5a; “R” in the experiment on E. coli TEM-16. Moreover, the figures for the Interpretation entry in the experiment on E. coli NDM5b and in the experiment on E. coli TEM-30 were “R” and “*I”, respectively.
Trimethoprim/sulfamethoxazole: the Interoretation entry is “R” with E. coli SHV1 (APHA); “S” with E. coli TEM-104; “R” in the experiment on E. coli TEM-206; “R” in the experiment with E. coli TEM-148; “S” with E. coli NDM5a; “S” in the experiment on E. coli TEM-16. Also, the Interoretation result is listed as “R” with E. coli NDM5b and “S” in the experiment with E. coli TEM-30. Moreover, the Interpretation entry was “R” in the experiment with E. coli SHV1 (APHA); “S” in the experiment on E. coli TEM-104; “R” in the experiment on E. coli TEM-206; “R” in the experiment with E. coli TEM-148; “S” in the experiment on E. coli NDM5a; “S” in the experiment on E. coli TEM-16. Also, the Interpretation result was “R” in the experiment with E. coli NDM5b and “S” in the experiment on E. coli TEM-30.
Regarding `O=C1CN(/N=C/c2ccc([N+](=O)[O-])o2)C(=O)N1` [Nitrofurantoin], the Interoretation entry in the experiment with E. coli SHV1 (APHA) is reported as “S”; in the experiment with E. coli TEM-104 it was “S”; in the experiment with E. coli TEM-206, “S”; in the experiment on E. coli TEM-148 it was “S”; in the experiment on E. coli NDM5a it was “R”; with E. coli TEM-16, “S”. The figures for the Interoretation result in the experiment on E. coli NDM5b and in the experiment on E. coli TEM-30 were “R” and “S”, respectively. For the same compound, the Interpretation result in the experiment with E. coli SHV1 (APHA) is reported as “S”; in the experiment on E. coli TEM-104 it was “S”; with E. coli TEM-206, “S”; in the experiment with E. coli TEM-148 it was “S”; with E. coli NDM5a, “R”; in the experiment with E. coli TEM-16, “S”. Further, the Interpretation result was “R” with E. coli NDM5b and “S” in the experiment with E. coli TEM-30.
Regarding `C[C@H]1COc2c(N3CCN(C)CC3)c(F)cc3c(=O)c(C(=O)O)cn1c23` [Levofloxacin], the Interoretation result in the experiment on E. coli SHV1 (APHA) is reported as “S”; in the experiment on E. coli TEM-104, “S”; in the experiment on E. coli TEM-206 it was “R”; in the experiment with E. coli TEM-148, “S”; in the experiment on E. coli NDM5a it was “R”; in the experiment on E. coli TEM-16 it was “S”. The Interoretation entry with E. coli NDM5b and with E. coli TEM-30 was “R” in each case. For the same compound, the Interpretation entry in the experiment on E. coli SHV1 (APHA) is on record as “S”; in the experiment with E. coli TEM-104, “S”; with E. coli TEM-206, “R”; in the experiment with E. coli TEM-148 it was “S”; in the experiment on E. coli NDM5a it was “R”; with E. coli TEM-16, “S”. Besides, the Interpretation result in the experiment on E. coli NDM5b and with E. coli TEM-30 was “R” each time.
For Ac-RLTPFPHNRRPRLTPFPRQRR-NH2 [Pro4], the FICi values in the experiment on E. coli (Replicate1), with E. coli (Replicate2), in the experiment with E. coli (Replicate3) and in the experiment on E. coli (Replicate4) was 2 each time.
Consider `C[C@@H](O)[C@H]1C(=O)N2C(C(=O)O)=C(S[C@@H]3CN[C@H](C(=O)N(C)C)C3)[C@H](C)[C@H]12` [Meropenem], for which the Interoretation entry in the experiment on E. coli SHV1 (APHA) is on record as “S”; in the experiment on E. coli TEM-104 it was “S”; in the experiment on E. coli TEM-206, “S”; in the experiment with E. coli TEM-148, “S”; with E. coli NDM5a it was “R”; with E. coli TEM-16 it was “S”. In addition, the Interoretation result is recorded as “I” with E. coli NDM5b and “S” in the experiment with E. coli TEM-30. Further, the Interpretation entry is “S” with E. coli SHV1 (APHA); “S” in the experiment with E. coli TEM-104; “S” in the experiment with E. coli TEM-206; “S” in the experiment on E. coli TEM-148; “R” in the experiment on E. coli NDM5a; “S” in the experiment on E. coli TEM-16. Moreover, the values for the Interpretation result in the experiment with E. coli NDM5b and in the experiment with E. coli TEM-30 were “I” and “S”, respectively.
For the compound `CO[C@@]1(NC(=O)C(C(=O)O)c2ccsc2)C(=O)N2[C@@H](C(=O)O)C(C)(C)S[C@@H]21` (some centres unmarked) [Temocillin], the Interoretation entry is “R” with E. coli SHV1 (APHA); “S” in the experiment on E. coli TEM-104; “S” in the experiment on E. coli TEM-206; “S” in the experiment on E. coli TEM-148; “S” in the experiment on E. coli TEM-30. Besides, the Interpretation result in the experiment on E. coli SHV1 (APHA) was “R”; in the experiment with E. coli TEM-104, “S”; in the experiment with E. coli TEM-206 it was “S”; with E. coli TEM-148, “S”; in the experiment with E. coli NDM5a, “R”; with E. coli TEM-16, “R”. Besides, the Interpretation result is “R” with E. coli NDM5b and “S” with E. coli TEM-30.
Turning to Ac-RLPPFLHNRRPRLPPFLRQRR-NH2 [Pro2], the FICi values in the experiment on E. coli (Replicate1) was 0.75; with E. coli (Replicate2), 0.625; with E. coli (Replicate3) it was 0.67; in the experiment with E. coli (Replicate4), 0.71.
